How the values were obtained:
chitin synthases = assay: Inhibitory activity against the chitin synthases (summary statements); type: biochemical
From the text: The inhibitory activities against the chitin synthase 1 of Candida albicans chs2 Δ chs 3 Δ (abbreviated as ‘enzyme 1’) and the chitin synthase 2 of Saccharomyces cerevisiae ECY38-38A(pAS6)(abbreviated as ‘enzyme 2’) was examined for compound Nos. 1 to 70 compound and polyoxin D, a positive control compound.
The inhibitory activity against the chitin synthase 1 prepared from Candida albicans and the chitin synthase 2 prepared from Saccharomyces cerevisiae were examined as follows. A reaction mixture containing 32 mM Tris-HCl (pH 7.5), 2 mM cobalt acetate, 1.1 mM UDP-[U-^14C]-N-acetyl-d-glucosamine (GlcNAc) (400,000 cpm/μmol), 2 μL of trypsin (0.75 mg/mL), 20 μL of each crude enzyme and 14 μL of each test sample was kept at 30° C. for 15 minutes to activate the enzyme. Then, 2 μL of trypsin inhibitor (1.5 mg/mL) was added and the mixture was kept in an ice bath for 10 minutes to deactivate trypsin. 2 μL of 0.8 M N-acetyl-d-glucosamine was added to a total volume of 50 μL and reaction was performed at 30° C. for 90 minutes. The reaction was stopped using 1 mL of 10% TCA solution and the reaction solution was filtered with a GF/C filter and dried at room temperature. After adding 3 mL of a scintillation cocktail solution, the amount of isotopes was measured using a liquid scintillation counter. Percentage inhibition against each enzyme was calculated by the following Equation 1.

[1] = target: T1, chitin synthase 1 of Candida albicans chs2 Δ chs 3 Δ (Candida albicans, UniProt P23316); assay: In vitro enzyme assay for chitin synthase 1 of Candida albicans (enzyme 1); type: biochemical; settings: relative to polyoxin D (50% inhibitory activity = value 5)
T1 construct: Crude enzyme was prepared using the Candida albicans chs2 Δ chs 3 Δ mutant; endogenous in cells; host or cells: Candida albicans chs2Δ/chs2Δ chs3Δ/chs3Δ mutant; 130,000 x g membrane pellet
T1 sequence (P23316 whole entry, stated change not applied): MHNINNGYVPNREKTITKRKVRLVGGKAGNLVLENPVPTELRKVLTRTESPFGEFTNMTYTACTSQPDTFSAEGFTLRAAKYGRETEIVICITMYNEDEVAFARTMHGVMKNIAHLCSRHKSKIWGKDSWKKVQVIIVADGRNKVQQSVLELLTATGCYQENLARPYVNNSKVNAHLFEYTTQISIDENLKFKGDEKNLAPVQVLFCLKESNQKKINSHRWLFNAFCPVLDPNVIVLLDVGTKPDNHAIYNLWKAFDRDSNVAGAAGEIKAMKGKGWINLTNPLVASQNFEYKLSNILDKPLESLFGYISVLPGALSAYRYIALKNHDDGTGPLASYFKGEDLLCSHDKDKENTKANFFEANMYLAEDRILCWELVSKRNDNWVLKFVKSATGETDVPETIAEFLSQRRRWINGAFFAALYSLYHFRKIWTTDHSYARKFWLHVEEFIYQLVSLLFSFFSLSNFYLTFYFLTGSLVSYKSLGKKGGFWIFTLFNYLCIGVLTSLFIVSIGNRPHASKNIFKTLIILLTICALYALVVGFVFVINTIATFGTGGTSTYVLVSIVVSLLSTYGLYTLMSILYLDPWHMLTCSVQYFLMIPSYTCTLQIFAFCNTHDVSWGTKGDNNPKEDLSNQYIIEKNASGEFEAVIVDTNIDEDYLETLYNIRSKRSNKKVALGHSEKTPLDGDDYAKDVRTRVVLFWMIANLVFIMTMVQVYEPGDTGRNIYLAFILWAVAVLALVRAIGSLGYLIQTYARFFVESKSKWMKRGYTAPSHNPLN
Outline: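 Trypsin-activated crude membrane chitin synthase 1 from C. albicans chs2Δ chs3Δ was incubated 90 min at 30 °C with 1.1 mM UDP-[14C]GlcNAc and 2 mM cobalt acetate in Tris-HCl pH 7.5. Filtered TCA precipitate was counted by scintillation; values are scores 1–8 against polyoxin D (5 = same concentration).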

[2] = system: Candida lusitaniae ATCC 42720; assay: In vitro antifungal activity (MIC), NCCLS method; type: cell-based; settings: for MIC (minimum inhibitory concentration): 48 hours
Outline: (§1)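 ATCC reference strains tested by NCCLS MIC method. Final inoculum 5×10^2 to 2.5×10^3 cell/mL over a two-fold dilution series; 48 h incubation.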

[3] = system: Candida albicans A207 (clinical isolate); assay: In vitro antifungal activity (MIC), NCCLS method; type: cell-based; settings: 48 hours
Outline: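 According to NCCLS guidance, each compound is diluted two-fold and challenged with a fungal inoculum of 5×10^2 to 2.5×10^3 cell/mL (final). Incubation lasts 48 hours.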

[4] = system: Aspergillus terreus ATCC 46941; assay: In vitro antifungal activity (MIC), NCCLS method; type: cell-based; settings: for MIC (minimum inhibitory concentration): 48 hours
Outline: as §1

Candida krusei ATCC 6258 = assay: In vitro antifungal activity (MIC), NCCLS method; type: cell-based; settings: for MIC (minimum inhibitory concentration): 48 hours
Outline: as §1

[5] = system: Candida glabrata ATCC 48435; assay: In vitro antifungal activity (MIC), NCCLS method; type: cell-based
Outline: as §1

[6] = system: Candida tropicalis ATCC 13803; assay: In vitro antifungal activity (MIC), NCCLS method; type: cell-based; settings: for MIC (minimum inhibitory concentration): 48 hours
Outline: as §1

[7] = system: Aspergillus fumigatus ATCC 16424; assay: In vitro antifungal activity (MIC), NCCLS method; type: cell-based; settings: for MIC (minimum inhibitory concentration): 48 hours
Outline: as §1

[8] = system: Aspergillus flavus ATCC 64025; assay: In vitro antifungal activity (MIC), NCCLS method; type: cell-based; settings: for MIC (minimum inhibitory concentration): 48 hours
Outline: as §1

[9] = system: Mucor ramosissimus ATCC 90286; assay: In vitro antifungal activity (MIC), NCCLS method; type: cell-based; settings: for MIC (minimum inhibitory concentration): 48 hours
Outline: as §1

[10] = system: Cryptococcus neoformans ATCC 36556; assay: In vitro antifungal activity (MIC), NCCLS method; type: cell-based; settings: 72 hours; for MIC (minimum inhibitory concentration): RPMI 1640 medium
Outline: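 Broth microdilution per NCCLS: two-fold serial dilutions of test compound inoculated with fungal suspension at a final 5×10^2 to 2.5×10^3 cell/mL. Strains other than Cryptococcus neoformans were incubated 48 hours before MIC reading.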

[11] = system: Candida parapsilosis ATCC 34136; assay: In vitro antifungal activity (MIC), NCCLS method; type: cell-based
Outline: as §1

[12] = system: Candida albicans ATCC 10231; assay: In vitro antifungal activity (MIC), NCCLS method; type: cell-based; settings: for MIC (minimum inhibitory concentration): 48 hours
Outline: as §1

[13] = target: T2, chitin synthase 2 of Saccharomyces cerevisiae ECY38-38A(pAS6) (Saccharomyces cerevisiae, UniProt P14180); assay: In vitro enzyme assay for chitin synthase 2 of Saccharomyces cerevisiae (enzyme 2); type: biochemical; settings: relative to polyoxin D (50% inhibitory activity = value 5)
T2 construct: made in house; host or cells: Saccharomyces cerevisiae ECY38-38A (chs1-23 chs2::LEU2 cal1/csd2) carrying plasmid pAS6, grown in galactose medium; 130,000 x g membrane pellet
T2 sequence (P14180 whole entry): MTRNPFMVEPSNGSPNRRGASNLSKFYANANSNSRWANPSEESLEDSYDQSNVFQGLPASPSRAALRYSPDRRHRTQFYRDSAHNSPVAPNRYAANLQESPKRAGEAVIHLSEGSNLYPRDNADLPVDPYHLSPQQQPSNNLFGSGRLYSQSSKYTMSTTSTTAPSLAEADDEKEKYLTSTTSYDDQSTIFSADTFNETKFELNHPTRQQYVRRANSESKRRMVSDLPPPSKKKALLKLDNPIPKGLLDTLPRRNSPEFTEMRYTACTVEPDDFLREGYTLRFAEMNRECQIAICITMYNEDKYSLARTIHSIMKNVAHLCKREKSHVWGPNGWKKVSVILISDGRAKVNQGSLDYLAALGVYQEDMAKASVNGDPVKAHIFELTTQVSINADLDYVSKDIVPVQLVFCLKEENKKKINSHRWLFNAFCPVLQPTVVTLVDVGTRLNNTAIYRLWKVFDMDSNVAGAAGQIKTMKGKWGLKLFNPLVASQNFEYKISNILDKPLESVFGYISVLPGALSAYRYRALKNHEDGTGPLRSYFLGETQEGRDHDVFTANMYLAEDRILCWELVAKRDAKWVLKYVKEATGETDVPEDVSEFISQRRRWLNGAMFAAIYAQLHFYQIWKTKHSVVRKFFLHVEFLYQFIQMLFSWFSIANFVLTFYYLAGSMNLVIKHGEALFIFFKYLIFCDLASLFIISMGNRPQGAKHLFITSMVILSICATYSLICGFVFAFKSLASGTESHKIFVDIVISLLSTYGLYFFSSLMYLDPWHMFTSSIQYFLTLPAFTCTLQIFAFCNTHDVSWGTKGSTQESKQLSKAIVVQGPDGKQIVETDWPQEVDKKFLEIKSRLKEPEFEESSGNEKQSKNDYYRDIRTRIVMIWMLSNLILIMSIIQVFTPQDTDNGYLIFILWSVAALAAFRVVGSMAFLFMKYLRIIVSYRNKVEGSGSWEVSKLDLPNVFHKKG
Outline: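 Values are scores: 5 means 50% inhibition at the same concentration as polyoxin D, lower scores 2- to 16-fold higher concentration, higher scores ½ to ⅛. Radiolabel from 1.1 mM UDP-[14C]-GlcNAc was incorporated into TCA-insoluble chitin over 90 min at 30 °C (pH 7.5 Tris, 2 mM Co2+). The enzyme was a trypsin-activated membrane fraction from CHS2-only S. cerevisiae ECY38-38A(pAS6).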

human pathogenic fungi = assay: Antifungal activity against human pathogenic fungi (summary statements); type: cell-based
From the text: Candida albicans ATCC 10231, Candida lusitaniae ATCC 42720, Candida krusei ATCC 6258, Candida tropicalis ATCC 13803, Candida glabrata ATCC 48435, Candida parapsilosis ATCC 34136, Cryptococcus neoformans ATCC 36556, Aspergillus fumigatus ATCC 16424, Aspergillus flavus ATCC 64025, Aspergillus terreus ATCC 46941 and Mucor ramosissimus ATCC 90286 strains for the MIC (minimum inhibitory concentration) measurement were obtained from ATCC (American Type Culture Collection) in the U.S. The Candida albicans A207(clinical isolate) strain was used by isolating it from the patients.
The determination of MIC was performed according to the NCCLS (National Committee for Clinical Laboratory Standard) method. Each test sample solution was diluted two-fold and inoculated with a fungal suspension to reach a final inoculum size of 5×10^2 to 2.5×10^3 cell/mL. The Cryptococcus neoformans strain was cultured in the RPMI 1640 medium for 72 hours. Other strains were cultured for 48 hours.

[14] = Candida glabrata ATCC 48435, 48 hours
[15] = Candida parapsilosis ATCC 34136, 48 hours

Compound | inhibitory activities against the chitin synthases (in words) (chitin synthases) | Relative activity Enzyme 1 [1] | MIC (minimum inhibitory concentration) [2] [µg/mL] | MIC (minimum inhibitory concentration) [3] [µg/mL] | MIC (minimum inhibitory concentration) [4] [µg/mL] | MIC (minimum inhibitory concentration) (Candida krusei ATCC 6258) [µg/mL] | MIC (minimum inhibitory concentration) [5, 14] [µg/mL] | MIC (minimum inhibitory concentration) [6] [µg/mL] | MIC (minimum inhibitory concentration) [7] [µg/mL] | MIC (minimum inhibitory concentration) [8] [µg/mL] | MIC (minimum inhibitory concentration) [9] [µg/mL] | MIC (minimum inhibitory concentration) [10] [µg/mL] | MIC (minimum inhibitory concentration) [11, 15] [µg/mL] | MIC (minimum inhibitory concentration) [12] [µg/mL] | Relative activity Enzyme 2 [13] | antifungal activities compared with amphotericin B (in words) (human pathogenic fungi) | further results
13-(4-Isopropylbenzyl)-9-O-butylberberrubine iodide [Compound No. 18] | exceptionally superior inhibitory activities | 4 (Compounds having the inhibitory activity at 2-fold, 4-fold, 8-fold and 16-fold higher concentrations than that of polyoxin D were given the values of 4, 3, 2 and 1, respectively) | 1 | 0.5 | 8 | 1 | 4 | 0.25 | 2 | 8 | 4 | 1 | 4 | 0.5 | 7 (compounds having the inhibitory activity at ½, ¼ and ⅛ lower concentrations than that of polyoxin D were given the values of 6, 7 and 8, respectively) | comparable to that of amphotericin B | –
13-(4-Isopropylbenzyl)-9-O-propylberberrubine chloride [Compound No. 49] | exceptionally superior inhibitory activities | 4 (Compounds having the inhibitory activity at 2-fold, 4-fold, 8-fold and 16-fold higher concentrations than that of polyoxin D were given the values of 4, 3, 2 and 1, respectively) | 1 | 1 | 8 | 2 | 4 | 0.5 | 4 | 8 | 4 | 2 | 4 | 1 | 7 (compounds having the inhibitory activity at ½, ¼ and ⅛ lower concentrations than that of polyoxin D were given the values of 6, 7 and 8, respectively) | comparable to that of amphotericin B | –
COc1ccc2c(Cc3ccc(C(C)(C)C)cc3)c3[n+](cc2c1OC)CCc1cc2c(cc1-3)OCO2.[Cl-] [Comparative compound 1, reference compound] | – | 1 (Compounds having the inhibitory activity at 2-fold, 4-fold, 8-fold and 16-fold higher concentrations than that of polyoxin D were given the values of 4, 3, 2 and 1, respectively) | – | – | – | – | – | – | – | – | – | – | – | – | 3 (Compounds having the inhibitory activity at 2-fold, 4-fold, 8-fold and 16-fold higher concentrations than that of polyoxin D were given the values of 4, 3, 2 and 1, respectively) | – | MIC ([2]; Clavispora lusitaniae, ATCC42720, 48 hours, read-out: MIC (minimum inhibitory concentration)): 8 µg/mL; MIC ([3]; read-out: MIC (minimum inhibitory concentration)): 8 µg/mL; MIC ([4]; ATCC46941, 48 hours, read-out: MIC (minimum inhibitory concentration)): > 128 µg/mL; MIC (Candida krusei ATCC 6258; Pichia kudriavzevii, ATCC6258, 48 hours, read-out: MIC (minimum inhibitory concentration)): 16 µg/mL; antifungal activities (in words) ([5]; Candida glabrata): no antifungal activities; MIC ([5]; Nakaseomyces glabratus, ATCC48435, Candida glabrata ATCC 48435, 48 hours, read-out: MIC (minimum inhibitory concentration)): > 128 µg/mL; MIC ([6]; ATCC13803, 48 hours, read-out: MIC (minimum inhibitory concentration)): 2 µg/mL; MIC ([7]; ATCC16424, 48 hours, read-out: MIC (minimum inhibitory concentration)): 128 µg/mL; MIC ([8]; ATCC64025, 48 hours, read-out: MIC (minimum inhibitory concentration)): > 128 µg/mL; MIC ([9]; ATCC90286, 48 hours, read-out: MIC (minimum inhibitory concentration)): 128 µg/mL; MIC ([10]; ATCC36556, RPMI 1640 medium, read-out: MIC (minimum inhibitory concentration)): 8 µg/mL; antifungal activities (in words) ([11]; Candida parapsilosis): no antifungal activities; MIC ([11]; Lodderomyces parapsilosis, ATCC34136, Candida parapsilosis ATCC 34136, 48 hours, read-out: MIC (minimum inhibitory concentration)): > 128 µg/mL; MIC ([12]; ATCC10231, 48 hours, read-out: MIC (minimum inhibitory concentration)): 4 µg/mL
COc1ccc2c(Cc3ccc(C(C)C)cc3)c3[n+](cc2c1OCCCCCCCl)CCc1cc2c(cc1-3)OCO2.[I-] [Compound No. 22, 13-(4-Isopropylbenzyl)-9-O-(6-chlorohexyl)berberrubine iodide] | – | 2 (Compounds having the inhibitory activity at 2-fold, 4-fold, 8-fold and 16-fold higher concentrations than that of polyoxin D were given the values of 4, 3, 2 and 1, respectively) | 2 | 0.5 | 8 | 1 | 2 | 0.5 | 2 | 8 | 4 | 1 | 2 | 0.5 | 5 (A compound having the same inhibitory activity as that of polyoxin D at the same concentration was given the value 5) | – | –
COc1ccc2cc3[n+](cc2c1O)CCc1cc2c(cc1-3)OCO2 [berberrubine] | – | – | – | – | – | – | – | – | – | – | – | – | – | – | – | – | MIC (human pathogenic fungi; berberrubine, the starting material, strains not specified): 256 to 512 µg/mL

Source: patent US7915276B2, “Berberrubine derivatives having antifungal activities” (priority 2006, dated 2011)
